For one assay, the target named is T1, human CB2 receptors (Homo sapiens, UniProt P34972).
T1 construct: expressed in transfected cells; host or cells: CHO cells
Nature of the assay: cAMP assay, human CB2. The class given is cell-based. In short, it runs like this: (§1)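 CHO cells expressing human CB1 or CB2, preincubated in Krebs Ringer bicarbonate with 1 mM IBMX, then compound for 30 min at 30° C. cAMP quantified by time-resolved FRET (cAMP-Nano-TRF) against a cAMP standard curve; EC50 values derived.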

The next assay concerns the target T2, human CB1 receptors (Homo sapiens, UniProt P21554).
T2 construct: expressed in transfected cells; host or cells: CHO cells
Nature of the assay: cAMP assay, human CB1. The assay is classed as cell-based. In short, it runs like this:
as §1

Where [1] appears, read: functional cAMP assay, CHO cells expressing human CB2, read-out: Ec50: CB2 - hu cAMP.
Setting [2] is: functional cAMP assay, CHO cells expressing human CB1, read-out: Ec50: CB1 - hu cAMP.

Like-named read-outs stand apart in the source and are kept apart here. Some results are limits rather than exact numbers.

T2 sequence (P21554 whole entry): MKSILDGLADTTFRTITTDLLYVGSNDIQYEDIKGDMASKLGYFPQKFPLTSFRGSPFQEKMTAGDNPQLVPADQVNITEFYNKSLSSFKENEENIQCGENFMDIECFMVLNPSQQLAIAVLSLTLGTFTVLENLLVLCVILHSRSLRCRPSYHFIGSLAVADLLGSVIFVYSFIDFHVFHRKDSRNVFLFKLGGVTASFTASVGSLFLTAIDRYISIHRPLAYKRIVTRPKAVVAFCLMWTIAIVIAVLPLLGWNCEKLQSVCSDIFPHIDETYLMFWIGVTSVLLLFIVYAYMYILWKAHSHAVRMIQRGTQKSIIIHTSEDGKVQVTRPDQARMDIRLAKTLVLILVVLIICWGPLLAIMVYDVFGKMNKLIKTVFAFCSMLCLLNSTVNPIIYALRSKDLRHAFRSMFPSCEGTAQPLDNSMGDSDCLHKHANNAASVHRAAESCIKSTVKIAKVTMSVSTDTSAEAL
T1 sequence (P34972 whole entry): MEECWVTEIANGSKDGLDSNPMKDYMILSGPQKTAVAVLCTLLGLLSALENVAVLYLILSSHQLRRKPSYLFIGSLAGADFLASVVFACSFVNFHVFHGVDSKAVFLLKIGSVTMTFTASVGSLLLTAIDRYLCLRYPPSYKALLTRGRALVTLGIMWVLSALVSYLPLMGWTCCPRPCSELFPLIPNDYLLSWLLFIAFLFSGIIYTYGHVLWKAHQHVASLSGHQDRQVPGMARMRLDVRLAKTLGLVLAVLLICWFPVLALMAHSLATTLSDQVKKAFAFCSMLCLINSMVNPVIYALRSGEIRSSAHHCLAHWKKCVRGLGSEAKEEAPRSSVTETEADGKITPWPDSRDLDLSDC

For the compound `CCN(CCOC)C(=O)n1nnn(-c2cccc(Cl)c2)c1=O` [Example 80, 4-(3-Chloro-phenyl)-5-oxo-4,5-dihydro-tetrazole-1-carboxylic acid ethyl-(2-methoxy-ethyl)-amide], the EC50 was 2.4 nM at human CB2 receptors and more than 10000 nM at human CB1 receptors.

Consider `CCN(CCOC)C(=O)n1nnn(-c2cccc(OC(F)(F)F)c2)c1=O` [Example 81, 5-Oxo-4-(3-trifluoromethoxy-phenyl)-4,5-dihydro-tetrazole-1-carboxylic acid ethyl-(2-methoxy-ethyl)-amide], for which the EC50 is 4 nM at human CB2 receptors (setting [1]) and more than 10000 nM at human CB1 receptors (setting [2]).

Regarding `CCN(CCOC)C(=O)n1nnn(-c2ccc(Cl)cc2)c1=O` [Example 82, 4-(4-Chloro-phenyl)-5-oxo-4,5-dihydro-tetrazole-1-carboxylic acid ethyl-(2-methoxy-ethyl)-amide], the EC50 was 3.3 nM on human CB2 receptors and more than 10000 nM at human CB1 receptors.

For `COCCN(C(=O)n1nnn(-c2cccc(Cl)c2)c1=O)C(C)C` [Example 83, 4-(3-Chloro-phenyl)-5-oxo-4,5-dihydro-tetrazole-1-carboxylic acid isopropyl-(2-methoxy-ethyl)-amide], the EC50 was 5.3 nM at human CB2 receptors and more than 10000 nM on human CB1 receptors.

Consider `COCCN(C(=O)n1nnn(-c2cccc(OC(F)(F)F)c2)c1=O)C(C)C` [Example 84, 5-Oxo-4-(3-trifluoromethoxy-phenyl)-4,5-dihydro-tetrazole-1-carboxylic acid isopropyl-(2-methoxy-ethyl)-amide], for which the EC50 at human CB2 receptors (setting [1]) is 9.5 nM; at human CB1 receptors (setting [2]) it was more than 10000 nM.

For the compound `COCCN(C(=O)n1nnn(-c2ccc(Cl)cc2)c1=O)C(C)C` [Example 85, 4-(4-Chloro-phenyl)-5-oxo-4,5-dihydro-tetrazole-1-carboxylic acid isopropyl-(2-methoxy-ethyl)-amide], the results for the EC50 at human CB2 receptors and at human CB1 receptors were 7.9 nM and more than 10000 nM, respectively.

Regarding `COCCCN(C)C(=O)n1nnn(-c2cccc(Cl)c2)c1=O` [Example 86, 4-(3-Chloro-phenyl)-5-oxo-4,5-dihydro-tetrazole-1-carboxylic acid (3-methoxy-propyl)-methyl-amide], the EC50 on human CB2 receptors (setting [1]) was 1 nM; on human CB1 receptors (setting [2]), more than 10000 nM.

With `COCCCN(C)C(=O)n1nnn(-c2cccc(OC(F)(F)F)c2)c1=O` [Example 87, 5-Oxo-4-(3-trifluoromethoxy-phenyl)-4,5-dihydro-tetrazole-1-carboxylic acid (3-methoxy-propyl)-methyl-amide], the EC50 at human CB2 receptors is 3.6 nM; at human CB1 receptors, more than 10000 nM.

On to `COCCCN(C)C(=O)n1nnn(-c2ccc(Cl)cc2)c1=O` [Example 88, 4-(4-Chloro-phenyl)-5-oxo-4,5-dihydro-tetrazole-1-carboxylic acid (3-methoxy-propyl)-methyl-amide], for which the EC50 at human CB2 receptors (setting [1]) was 1.9 nM; on human CB1 receptors (setting [2]) it was more than 10000 nM.

With `O=C(CN1CCN(C(=O)n2nnn(-c3cccc(Cl)c3)c2=O)CC1)N1CCOCC1` [Example 89, 1-(3-Chloro-phenyl)-4-[4-(2-morpholin-4-yl-2-oxo-ethyl)-piperazine-1-carbonyl]-1,4-dihydro-tetrazol-5-one], the EC50 was 16.9 nM on human CB2 receptors (setting [1]) and more than 10000 nM at human CB1 receptors (setting [2]).

`O=C(CN1CCN(C(=O)n2nnn(-c3cccc(OC(F)(F)F)c3)c2=O)CC1)N1CCOCC1` [Example 90, 1-[4-(2-Morpholin-4-yl-2-oxo-ethyl)-piperazine-1-carbonyl]-4-(3-trifluoromethoxy-phenyl)-1,4-dihydro-tetrazol-5-one]: the EC50 is 67 nM at human CB2 receptors (setting [1]) and more than 10000 nM at human CB1 receptors (setting [2]).

On to `O=C(CN1CCN(C(=O)n2nnn(-c3ccc(Cl)cc3)c2=O)CC1)N1CCOCC1` [Example 91, 1-(4-Chloro-phenyl)-4-[4-(2-morpholin-4-yl-2-oxo-ethyl)-piperazine-1-carbonyl]-1,4-dihydro-tetrazol-5-one], for which the results for the EC50 at human CB2 receptors (setting [1]) and on human CB1 receptors (setting [2]) were 42.8 nM and more than 10000 nM, respectively.

For the compound `CN(C)C(=O)CN1CCN(C(=O)n2nnn(-c3cccc(Cl)c3)c2=O)CC1` [Example 92, 2-{4-[4-(3-Chloro-phenyl)-5-oxo-4,5-dihydro-tetrazole-1-carbonyl]-piperazin-1-yl}-N,N-dimethyl-acetamide], the figures for the EC50 on human CB2 receptors (setting [1]) and on human CB1 receptors (setting [2]) were 16.4 nM and more than 10000 nM, respectively.

For the compound `CN(C)C(=O)CN1CCN(C(=O)n2nnn(-c3cccc(OC(F)(F)F)c3)c2=O)CC1` [Example 93, N,N-Dimethyl-2-{4-[5-oxo-4-(3-trifluoromethoxy-phenyl)-4,5-dihydro-tetrazole-1-carbonyl]-piperazin-1-yl}-acetamide], the EC50 at human CB2 receptors (setting [1]) is 24.2 nM; at human CB1 receptors (setting [2]), more than 10000 nM.

As for `CN(C)C(=O)CN1CCN(C(=O)n2nnn(-c3ccc(Cl)cc3)c2=O)CC1` [Example 94, 2-{4-[4-(4-Chloro-phenyl)-5-oxo-4,5-dihydro-tetrazole-1-carbonyl]-piperazin-1-yl}-N,N-dimethyl-acetamide], the EC50 is 21.1 nM on human CB2 receptors (setting [1]) and more than 10000 nM at human CB1 receptors (setting [2]).

Turning to `O=C(CN1CCN(C(=O)n2nnn(-c3cccc(Cl)c3)c2=O)CC1)N1CCCC1` [Example 95, 1-(3-Chloro-phenyl)-4-[4-(2-oxo-2-pyrrolidin-1-yl-ethyl)-piperazine-1-carbonyl]-1,4-dihydro-tetrazol-5-one], the EC50 at human CB2 receptors (setting [1]) was 4.7 nM; at human CB1 receptors (setting [2]) it was more than 10000 nM.

With `O=C(CN1CCN(C(=O)n2nnn(-c3cccc(OC(F)(F)F)c3)c2=O)CC1)N1CCCC1` [Example 96, 1-[4-(2-Oxo-2-pyrrolidin-1-yl-ethyl)-piperazine-1-carbonyl]-4-(3-trifluoromethoxy-phenyl)-1,4-dihydro-tetrazol-5-one], the EC50 on human CB2 receptors (setting [1]) is 18.2 nM; on human CB1 receptors (setting [2]), more than 10000 nM.

Turning to `O=C(CN1CCN(C(=O)n2nnn(-c3ccc(Cl)cc3)c2=O)CC1)N1CCCC1` [Example 97, 1-(4-Chloro-phenyl)-4-[4-(2-oxo-2-pyrrolidin-1-yl-ethyl)-piperazine-1-carbonyl]-1,4-dihydro-tetrazol-5-one], the EC50 at human CB2 receptors (setting [1]) is 12.9 nM; at human CB1 receptors (setting [2]), more than 10000 nM.

As to `CCOCCN(CC)C(=O)n1nnn(-c2cccc(Cl)c2)c1=O` [Example 98, 4-(3-Chloro-phenyl)-5-oxo-4,5-dihydro-tetrazole-1-carboxylic acid (2-ethoxy-ethyl)-ethyl-amide], the EC50 on human CB2 receptors is 1.8 nM; on human CB1 receptors, more than 10000 nM.

In the case of `CCOCCN(CC)C(=O)n1nnn(-c2cccc(OC(F)(F)F)c2)c1=O` [Example 99, 5-Oxo-4-(3-trifluoromethoxy-phenyl)-4,5-dihydro-tetrazole-1-carboxylic acid (2-ethoxy-ethyl)-ethyl-amide], the EC50 at human CB2 receptors (setting [1]) is 12.5 nM; at human CB1 receptors (setting [2]) it was more than 10000 nM.

For the compound `CCOCCN(CC)C(=O)n1nnn(-c2ccc(Cl)cc2)c1=O` [Example 100, 4-(4-Chloro-phenyl)-5-oxo-4,5-dihydro-tetrazole-1-carboxylic acid (2-ethoxy-ethyl)-ethyl-amide], the EC50 at human CB2 receptors was 1.7 nM; on human CB1 receptors, more than 10000 nM.

Consider `O=C(N1CCOCC1)n1nnn(-c2cccc(Cl)c2)c1=O` [Example 101, 1-(3-Chloro-phenyl)-4-(morpholine-4-carbonyl)-1,4-dihydro-tetrazol-5-one], for which the EC50 was 3.2 nM on human CB2 receptors (setting [1]) and more than 10000 nM at human CB1 receptors (setting [2]).

Regarding `O=C(N1CCOCC1)n1nnn(-c2cccc(OC(F)(F)F)c2)c1=O` [Example 102, 1-(Morpholine-4-carbonyl)-4-(3-trifluoromethoxy-phenyl)-1,4-dihydro-tetrazol-5-one], the EC50 at human CB2 receptors (setting [1]) is 4.4 nM; at human CB1 receptors (setting [2]), more than 10000 nM.

For the compound `O=C(N1CCOCC1)n1nnn(-c2ccc(Cl)cc2)c1=O` [Example 103, 1-(4-Chloro-phenyl)-4-(morpholine-4-carbonyl)-1,4-dihydro-tetrazol-5-one], the EC50 at human CB2 receptors (setting [1]) was 4.5 nM; on human CB1 receptors (setting [2]), more than 10000 nM.

`CCNC(=O)CN1CCN(C(=O)n2nnn(-c3cccc(Cl)c3)c2=O)CC1` [Example 104, 2-{4-[4-(3-Chloro-phenyl)-5-oxo-4,5-dihydro-tetrazole-1-carbonyl]-piperazin-1-yl}-N-ethyl-acetamide]: the EC50 on human CB2 receptors (setting [1]) was 12.7 nM; on human CB1 receptors (setting [2]), more than 10000 nM.

Turning to `CCNC(=O)CN1CCN(C(=O)n2nnn(-c3cccc(OC(F)(F)F)c3)c2=O)CC1` [Example 105, N-Ethyl-2-{4-[5-oxo-4-(3-trifluoromethoxy-phenyl)-4,5-dihydro-tetrazole-1-carbonyl]-piperazin-1-yl}-acetamide], the EC50 on human CB2 receptors (setting [1]) is 20.1 nM; on human CB1 receptors (setting [2]) it was more than 10000 nM.

On to `CCNC(=O)CN1CCN(C(=O)n2nnn(-c3ccc(Cl)cc3)c2=O)CC1` [Example 106, 2-{4-[4-(4-Chloro-phenyl)-5-oxo-4,5-dihydro-tetrazole-1-carbonyl]-piperazin-1-yl}-N-ethyl-acetamide], for which the values for the concentration for a half-maximal effect (EC50) on human CB2 receptors (setting [1]) and at human CB1 receptors (setting [2]) were 10.6 nM and more than 10000 nM, respectively.

Consider `CCCCNC(=O)CN1CCN(C(=O)n2nnn(-c3cccc(Cl)c3)c2=O)CC1` [Example 107, N-Butyl-2-{4-[4-(3-chloro-phenyl)-5-oxo-4,5-dihydro-tetrazole-1-carbonyl]-piperazin-1-yl}-acetamide], for which the results for the EC50 on human CB2 receptors (setting [1]) and at human CB1 receptors (setting [2]) were 2.9 nM and more than 10000 nM, respectively.

Take `CCCCNC(=O)CN1CCN(C(=O)n2nnn(-c3cccc(OC(F)(F)F)c3)c2=O)CC1` [Example 108, N-Butyl-2-{4-[5-oxo-4-(3-trifluoromethoxy-phenyl)-4,5-dihydro-tetrazole-1-carbonyl]-piperazin-1-yl}-acetamide]: the EC50 at human CB2 receptors (setting [1]) is 13.9 nM; at human CB1 receptors (setting [2]) it was more than 10000 nM.

For the compound `CCCCNC(=O)CN1CCN(C(=O)n2nnn(-c3ccc(Cl)cc3)c2=O)CC1` [Example 109, N-Butyl-2-{4-[4-(4-chloro-phenyl)-5-oxo-4,5-dihydro-tetrazole-1-carbonyl]-piperazin-1-yl}-acetamide], the EC50 is 4.2 nM at human CB2 receptors (setting [1]) and more than 10000 nM on human CB1 receptors (setting [2]).
